Source: ChEMBL document CHEMBL4507273 (2021)

Columns and labels:
[1] = biological target: Sodium-dependent noradrenaline transporter (Homo sapiens, UniProt P23975); settings: Compound concentration 10.0 uM
[2] = species: Rattus norvegicus; settings: Compound concentration 10.0 uM
[3] = biological target: Sodium-dependent dopamine transporter (Homo sapiens, UniProt Q01959); settings: Compound concentration 10.0 uM
[4] = biological target: Dual specificity tyrosine-phosphorylation-regulated kinase 1A (Homo sapiens) (UniProt Q13627); experiment: DYRK1A(h) Eurofins Kinase panel; settings: Compound concentration 1.0 uM
[5] = biological target: T1, Alpha-2B adrenergic receptor (Homo sapiens) (UniProt P18089); settings: Compound concentration 10.0 uM
T1 sequence (whole entry): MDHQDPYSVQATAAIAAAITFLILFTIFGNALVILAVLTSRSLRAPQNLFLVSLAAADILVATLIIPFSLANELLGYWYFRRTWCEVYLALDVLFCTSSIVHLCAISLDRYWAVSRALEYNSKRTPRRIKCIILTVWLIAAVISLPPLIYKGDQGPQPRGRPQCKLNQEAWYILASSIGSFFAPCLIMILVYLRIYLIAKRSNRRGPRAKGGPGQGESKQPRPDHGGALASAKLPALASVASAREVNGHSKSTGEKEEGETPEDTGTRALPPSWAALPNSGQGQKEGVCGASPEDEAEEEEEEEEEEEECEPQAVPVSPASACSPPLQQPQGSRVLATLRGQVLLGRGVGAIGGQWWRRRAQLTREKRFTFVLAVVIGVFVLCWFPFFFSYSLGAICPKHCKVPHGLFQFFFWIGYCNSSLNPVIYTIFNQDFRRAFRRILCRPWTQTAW

[6] = biological target: Muscarinic acetylcholine receptor M3 (Homo sapiens, UniProt P20309); experiment: GPCRScan assay: inhibition of M3; design: radioligand conc. used [nm] 0.3 – 1.0, parental cells stable CHO
[7] = biological target: Mu-type opioid receptor (Homo sapiens, UniProt P35372); experiment: GPCRScan assay: inhibition of MOR; design: radioligand conc. used [nm] 1.0 – 2.0, parental cells stable HEK
Mu-type opioid receptor, sequence (P35372 whole entry): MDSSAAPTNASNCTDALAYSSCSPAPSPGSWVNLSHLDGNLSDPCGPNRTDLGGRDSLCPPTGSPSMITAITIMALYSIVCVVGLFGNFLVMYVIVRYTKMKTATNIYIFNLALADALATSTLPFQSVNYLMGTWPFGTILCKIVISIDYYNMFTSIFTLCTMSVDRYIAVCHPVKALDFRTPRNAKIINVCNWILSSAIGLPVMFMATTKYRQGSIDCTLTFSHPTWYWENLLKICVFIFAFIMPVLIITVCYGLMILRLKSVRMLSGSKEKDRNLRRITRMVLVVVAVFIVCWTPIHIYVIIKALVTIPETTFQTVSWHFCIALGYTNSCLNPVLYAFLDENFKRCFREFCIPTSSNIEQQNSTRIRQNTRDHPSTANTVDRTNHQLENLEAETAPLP

Muscarinic acetylcholine receptor M3, sequence (P20309 whole entry): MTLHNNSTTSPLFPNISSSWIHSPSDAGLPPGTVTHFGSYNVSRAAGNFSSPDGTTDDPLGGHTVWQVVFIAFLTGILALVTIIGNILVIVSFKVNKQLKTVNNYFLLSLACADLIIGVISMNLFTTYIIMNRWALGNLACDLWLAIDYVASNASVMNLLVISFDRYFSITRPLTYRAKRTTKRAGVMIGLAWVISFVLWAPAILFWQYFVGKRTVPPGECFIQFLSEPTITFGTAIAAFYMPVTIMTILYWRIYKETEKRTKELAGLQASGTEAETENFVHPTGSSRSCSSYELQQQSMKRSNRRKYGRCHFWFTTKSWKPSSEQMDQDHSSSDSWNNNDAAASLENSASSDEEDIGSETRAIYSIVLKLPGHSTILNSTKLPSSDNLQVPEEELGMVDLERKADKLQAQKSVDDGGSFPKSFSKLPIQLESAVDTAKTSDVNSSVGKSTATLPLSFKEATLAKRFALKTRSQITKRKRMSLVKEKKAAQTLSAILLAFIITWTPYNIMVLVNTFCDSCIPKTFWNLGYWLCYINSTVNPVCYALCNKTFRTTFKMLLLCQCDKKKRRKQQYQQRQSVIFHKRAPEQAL
Sodium-dependent noradrenaline transporter, sequence (P23975 whole entry): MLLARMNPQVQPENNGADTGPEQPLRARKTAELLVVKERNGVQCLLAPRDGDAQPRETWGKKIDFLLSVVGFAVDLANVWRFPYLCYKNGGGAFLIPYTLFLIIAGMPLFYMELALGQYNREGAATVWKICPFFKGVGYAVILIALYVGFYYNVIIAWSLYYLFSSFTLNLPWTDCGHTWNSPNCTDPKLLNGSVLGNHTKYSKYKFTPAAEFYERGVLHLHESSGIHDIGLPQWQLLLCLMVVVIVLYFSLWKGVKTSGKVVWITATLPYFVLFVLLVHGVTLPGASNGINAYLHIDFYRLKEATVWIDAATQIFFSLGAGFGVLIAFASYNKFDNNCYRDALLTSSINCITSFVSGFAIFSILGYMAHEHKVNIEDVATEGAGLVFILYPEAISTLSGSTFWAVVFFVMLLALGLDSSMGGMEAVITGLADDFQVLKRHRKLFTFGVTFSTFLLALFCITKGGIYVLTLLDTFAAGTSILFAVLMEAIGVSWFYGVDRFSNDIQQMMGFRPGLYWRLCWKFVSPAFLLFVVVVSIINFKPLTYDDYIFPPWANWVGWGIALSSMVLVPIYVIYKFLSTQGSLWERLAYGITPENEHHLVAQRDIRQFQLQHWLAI
Sodium-dependent dopamine transporter, sequence (Q01959 whole entry): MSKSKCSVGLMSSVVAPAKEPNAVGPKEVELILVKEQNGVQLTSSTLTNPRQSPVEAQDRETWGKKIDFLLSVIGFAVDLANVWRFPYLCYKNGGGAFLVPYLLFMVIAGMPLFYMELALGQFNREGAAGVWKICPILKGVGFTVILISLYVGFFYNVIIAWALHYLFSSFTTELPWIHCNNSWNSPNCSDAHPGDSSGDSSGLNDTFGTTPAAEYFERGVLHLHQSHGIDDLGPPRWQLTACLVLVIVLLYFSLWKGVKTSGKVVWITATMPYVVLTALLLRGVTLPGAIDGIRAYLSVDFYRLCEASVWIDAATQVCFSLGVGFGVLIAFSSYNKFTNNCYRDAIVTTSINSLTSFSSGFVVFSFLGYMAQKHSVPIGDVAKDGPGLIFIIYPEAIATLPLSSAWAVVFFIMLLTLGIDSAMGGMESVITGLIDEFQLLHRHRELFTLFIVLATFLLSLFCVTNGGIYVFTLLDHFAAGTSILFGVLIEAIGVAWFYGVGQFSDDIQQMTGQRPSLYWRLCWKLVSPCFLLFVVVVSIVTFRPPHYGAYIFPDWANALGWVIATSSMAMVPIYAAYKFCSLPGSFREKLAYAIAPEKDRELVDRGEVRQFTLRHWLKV

CNCc1ccccc1-c1csc([C@@H](C)Nc2nc(C)nc3cc(OC)c(OC)cc23)c1 [BAY-293]
inhibition [1]: 86%
inhibition [2]: 13.1%
inhibition [3]: 90%
% residual kinase activity [4]: 68%
inhibition [5]: 85%
Ki ([6]; read-out: Ki): 972 nM
Ki ([6]; read-out: pKi (converted)): 955 nM

CNCc1ccccc1-c1csc([C@H](C)Nc2nc(C)nc3cc(OC)c(OC)cc23)c1 [BAY-294]
Ki ([7]; read-out: Ki): 854 nM
Ki ([7]; read-out: pKi (converted)): 759 nM
